Results taken from US10208028B1, “Methods of treating cancer” (Macau University of Science and Technology, priority 2017, dated 2019).

Legend:
c-MYC = experiment: Western blot analysis, c-MYC; assay type: cell-based; details: H358 cells, 3, 6, 9 μM, 24 hr
Protocol: (§1) The cell culture dish was placed in the ice and washed the cells with PBS. Then the PBS was removed to ensure that the cells were lysed in cell lysis buffer containing protease and phosphatase inhibitors. Adherent cells were scraped off from the plate and transferred the lysate into a new tube. The tube was maintained at a constant agitation for 15 min in the ice. Then the tubes were centrifuged at 4° C. 12000 g for 5 min. The supernatant was transferred into a new tube and 4× loading buffer was added to the supernatant. Each sample was boiled at 100° C. for 5 min. Equal amounts of protein (50 μg) were loaded into the wells of a SDS-PAGE gel, along with 3 μl markers. The gel was placed in transfer buffer in sandwich and was transferred to a nitrocellulose filter membrane. After transferring for 3 hr in an ice bucket at a constant current of 300 mA, the membranes were blocked in 5% non-fat milk in TBST at room temperature for 1 hr. The membrane was incubated overnight with the primary antibody solution, against the target protein at 4° C. The blot was rinsed 3 times within 5 min with TBST. The secondary antibody solution was incubated for 1 hr at room temperature. […]
(§2) To determine whether the induction of apoptosis in NSCLC cells was contributed by compound C620-0696-mediated growth inhibition, cleaved PARP1 in compound C620-0696 treated H358 cells was detected. […]

bromodomain of BPTF = bromodomain of BPTF (Homo sapiens, UniProt Q12830); experiment: Kinetic binding analysis by biolayer interferometry
Protocol: The Octet Red96 system (Forte Bio, Pall) was used to determine the binding between compound C620-0696 and BPTF. BPTF protein was loaded to saturation onto anti-His capture sensors (ForteBio), then was placed for 2 min in wells containing C620-0696 (concentrations: 3.125, 6.25, 12.5, 25, 50, 100, 200 μM). The baseline and dissociation steps were carried out in the kinetics buffer as per the instrument manufacturer's recommendations. Kinetic binding data in all cases were adequately described accurately by a 1:1 binding model.
FIG. 2A is a graph 200 showing the binding affinity of the bromodomain of BPTF with compound C620-0696 by Biolayer interferometry assay (BLI). BLI is a label-free technology for measuring biomolecular interactions. The bromodomain was immobilized on the streptavidin (SA) biosensors, and then mixed with different concentration of compound C620-0696 at 3.125, 6.25, 12.5, 25, 50, 100, 200 μM.

PARP1 = experiment: Western blot analysis, cleaved PARP1; assay type: cell-based; details: H358 cells, 9 μM, 24 hr
Protocol: as §1, §2

Cyclin D1 = experiment: Western blot analysis, cyclin D1; assay type: cell-based; details: H358 cells, 3, 6, 9 μM, 24 hr
Protocol: as §1, §2

H358 cells = experiment: MTT assay cell viability; assay type: cell-based; details: Homo sapiens, NCI-H358, 72 hr treatment
Protocol: (§3) A549 and H358 cell lines were stored in liquid nitrogen. A549 and H358 cells were cultured by RPMI 1640 medium after recovery. RPMI 1640 medium supplemented with 10% fetal bovine serum and 100 units/mL penicillin and 100 μg/mL streptomycin. A549 and H358 cells were grown at 37° C. incubator with 5% CO2.
(§4) All compounds were dissolved in dimethyl sulfoxide (DMSO) and stored at −40° C. HCC78 cells were plated in 96-well micro-plate and plated 3000 cells/well. Then the 96-well micro-plate was put back in the incubator and overnight for cell adhesion. After cell adhesion, the medium was removed and each well was added with 100 μl drug-containing medium. There were three different concentrations for each drug and three duplicate wells for each concentration. Then cell adhesion was cultured overnight for 72 hr. After 72 hr, each well was added with 10 μl of MTT solution and the 96-well plate was put back in the incubator for 4 hr. Then 100 μl of the SDS solution (10% SDS and 0.1 mM HCL) was added to each well and incubated at 37° C. for 4 hr. Finally the absorbance of the plate was measured by an absorbance reader (Tecan, Morrisvill, N.C., USA).
(§5) FIG. 3B is a graph 302 showing the effect of compound C620-0696 on the cell viability of A549 cells. A549 cells were treated by different concentrations of compound C620-0696, i.e. 3, 6, 9 and 12 μM for 72 hr. […]

A549 cells [1] = experiment: MTT assay cell viability; assay type: cell-based; details: Homo sapiens, 72 hr treatment
Protocol: as §3, §4, §5

A549 cells [2] = experiment: Colony formation assay; assay type: cell-based; details: A549 cells, 0.5, 1, 1.5 μM, 7 days, versus control group
Protocol: Cell survival was assessed by colony formation as previously described. A549 cells were seeded to six-well plate (500-1000/well). Then cells were exposed to various doses of compound C620-0696. After 7 days, colonies were fixed with 4% paraformaldehyde for 15 minutes and stained with crystal violet for 10-15 minutes. Finally, the staining solution was slowly washed off with water and the cells were air dried.
To determine the effect of the compound C620-0696 on A549 cell growth behavior, a colony formation assay was performed. A549 cells were treated by different concentrations of compound C620-0696, i.e. 0 (control group), 0.5, 1, 1.5 μM.

A549 cells [3] = experiment: Wound healing assay; assay type: cell-based; details: 24 and 48 hours postinjury, versus control cells
Protocol: A549 cells were seeded onto 6 well plates. When the cell confluence reached about >90% and scratch wounds were made by scraping the cell layer across each plate using the tip of 200 μl pipette. Wounded cultures were incubated in medium for 48 hr, and then visualized by Olympus inverted microscopy to assess cell migration ability.
To evaluate the effect of C620-0696 on cell migration and cellular processes in NSCLC, the wound healing assay was employed to assess the directional cell motility in A549 cells.

Koff (bromodomain of BPTF; 1:1 binding model): 1.70×10^−2 S^−1
Kd (bromodomain of BPTF; 3.125-200 μM, steady-state analysis, read-out: binding affinity KD): 35.5 µM
IC50 (H358 cells): 6.72 µM
IC50 (A549 cells [1]): 11.2 µM
Compound: CN(C)CCCNc1cc(NCc2ccco2)c2noc3c2c1C(=O)c1ccccc1-3 [compound C620-0696]
expression of c-MYC (c-MYC): suppressed the expression
levels of cleaved PARP1 (PARP1): significantly increased
expression of cyclin D1 (Cyclin D1): reduced the expression of cyclin D1
colony formation (A549 cells [2]): significant loss of colony formation
cell migration (wound healing) (A549 cells [3]): migrated more slowly
